# Earlier results in PMC7692329, “Inhibitory Effect of AB-PINACA, Indazole Carboxamide Synthetic Cannabinoid, on Human Major Drug-Metabolizing Enzymes and Transporters” (Pharmaceutics, 2020).
# Where two headings read alike, the source gives them in different places.
# Key:
# CYP3A4 = conditions: cited from earlier work
# CYP2C19 = conditions: cited from earlier work
# CYP2B6 = conditions: read-out: Ki, CYP2B6; cited from earlier work
# CYP2D6 = conditions: read-out: Ki, CYP2D6; cited from earlier work
# CYP2C8 = conditions: cited from earlier work
# CYP2C9 = conditions: cited from earlier work
# UGT1A3 = conditions: cited from earlier work
# CES1 = system: CES1; design: method as in PMID 25346527; conditions: 100 μM benzil, human liver microsomes; cited from earlier work
# UGT2B7 = system: UGT2B7; design: method as in PMID 28287454; conditions: cited from earlier work
# UGT1A9 = conditions: read-out: Ki, UGT1A9; noncompetitive inhibition; cited from earlier work
# [1] = system: OCT1/2, OAT1/3, and OATP1B1/1B3; design: method as in PMID 31430908; conditions: cited from earlier work
# [2] = child, chewing an AB-PINACA contaminated cigarette; cited from earlier work
# [3] = read-out: Ki, CYP3A4 (time-dependent), time-dependent inhibition
structure (smiles),measurement,setting,value
"CC(C)C(NC(=O)c1nn(Cc2ccc(F)cc2)c2ccccc12)C(N)=O (stereo not shown) [AB-FUBINACA, N-(1-amino-3-methyl-1-oxobutan-2-yl)-1-(4-fluorobenzyl)-1H-indazole-3-carboxamide]",inhibition of CYP3A4,CYP3A4,did not inhibited
same,Ki,"CYP2C19; read-out: Ki, CYP2C19",6.3 µM
same,Ki,CYP2B6,15 µM
same,Ki,CYP2D6,20.8 µM
same,Ki,"CYP2C8; read-out: Ki, CYP2C8",19.9 µM
same,Ki,"CYP2C9; read-out: Ki, CYP2C9",13.1 µM
Cc1ccc(C(=O)c2cn(CCCCCF)c3ccccc23)c2ccccc12 [MAM-2201],Ki,"CYP3A4; read-out: Ki, CYP3A4",5.4 µM
same,Ki,"CYP2C9; read-out: Ki, CYP2C9",5.6 µM
same,Ki,UGT1A3,5 µM
O=C(C(=O)c1ccccc1)c1ccccc1 [benzil],effect on formation of AB-PINACA carboxylic acid,CES1,abolished
O=C(c1cccc2ccccc12)c1cn(CCCCCF)c2ccccc12 [AM-2201],IC50,"CYP3A4; read-out: IC50, CYP3A4",4 µM
same,IC50,UGT2B7,10 µM
same,IC50,"CYP2C9; read-out: IC50, CYP2C9",3.9 µM
same,IC50,UGT1A3,4.3 µM
"CCCCCn1nc(C(=O)NC23CC4CC(CC(C4)C2)C3)c2ccccc21 [APINACA, N-(1-adamantyl)-1-pentyl-1H-indazole-3-carboxamide]",Ki,CYP3A4; [3],4.5 µM
same,"kinact, CYP3A4",CYP3A4; time-dependent inhibition,0.04686 min⁻¹
same,"kinact/Ki, CYP3A4",CYP3A4; time-dependent inhibition,172 M⁻¹ s⁻¹
same,Ki,UGT1A9,5.9 µM
same,"inhibition of transport activity of OCT1/2, OAT1/3, and OATP1B1/1B3",[1],did not inhibit
CC(C)C(NC(=O)c1nn(CCCCC(=O)O)c2ccccc12)C(N)=O (stereo not shown) [AB-PINACA pentanoic acid],serum level,[2],345 ng/mL
CCc1ccc(C(=O)c2cn(CCCCCF)c3ccccc23)c2ccccc12 [EAM-2201],Ki,CYP3A4; [3],4.1 µM
same,"kinact, CYP3A4",CYP3A4; time-dependent inhibition,0.0250 min⁻¹
same,"kinact/Ki, CYP3A4",CYP3A4; time-dependent inhibition,115 M⁻¹ s⁻¹
same,Ki,"CYP2C19; read-out: Ki, CYP2C19 (time-dependent), time-dependent inhibition",3.8 µM
same,"kinact, CYP2C19",CYP2C19; time-dependent inhibition,0.0264 min⁻¹
same,Ki,"CYP2C8; read-out: Ki, CYP2C8 (time-dependent), time-dependent inhibition",0.54 µM
same,"kinact, CYP2C8",CYP2C8; time-dependent inhibition,0.0633 min⁻¹
same,Ki,"CYP2C9; read-out: Ki, CYP2C9 (time-dependent), time-dependent inhibition",3 µM
same,"kinact, CYP2C9",CYP2C9; time-dependent inhibition,0.0462 min⁻¹
same,Ki,UGT1A3; competitive inhibition,2.4 µM
CC[C@H]1OC(=O)[C@H](C)[C@@H](O[C@H]2C[C@@](C)(OC)[C@@H](O)[C@H](C)O2)[C@H](C)[C@@H](O[C@@H]2O[C@H](C)C[C@H](N(C)C)[C@H]2O)[C@](C)(OC)C[C@@H](C)C(=O)[C@H](C)[C@@H](O)[C@]1(C)O [clarithromycin],"inactivation efficiency (kinact/Ki), CYP3A4",CYP3A4; representative clinical CYP3A4-mediated drug interactions,46.7 M⁻¹ s⁻¹
